Activity calls are given as the source filed them. The rule behind the calls is not given here.
Biological target: Perilipin-5 (Homo sapiens) + 1-acylglycerol-3-phosphate O-acyltransferase ABHD5 (Homo sapiens) (UniProt Q00G26+Q8WTS1)
Experiment: blockers of ABHD5 binding to perilipin-5 – biochemical, luminescence, dose response (AID 651677)
Details: ABHD5-PLIN5 interaction

Sequence of Perilipin-5 (Homo sapiens) + 1-acylglycerol-3-phosphate O-acyltransferase ABHD5 (Homo sapiens) (Q00G26 whole entry, looked up): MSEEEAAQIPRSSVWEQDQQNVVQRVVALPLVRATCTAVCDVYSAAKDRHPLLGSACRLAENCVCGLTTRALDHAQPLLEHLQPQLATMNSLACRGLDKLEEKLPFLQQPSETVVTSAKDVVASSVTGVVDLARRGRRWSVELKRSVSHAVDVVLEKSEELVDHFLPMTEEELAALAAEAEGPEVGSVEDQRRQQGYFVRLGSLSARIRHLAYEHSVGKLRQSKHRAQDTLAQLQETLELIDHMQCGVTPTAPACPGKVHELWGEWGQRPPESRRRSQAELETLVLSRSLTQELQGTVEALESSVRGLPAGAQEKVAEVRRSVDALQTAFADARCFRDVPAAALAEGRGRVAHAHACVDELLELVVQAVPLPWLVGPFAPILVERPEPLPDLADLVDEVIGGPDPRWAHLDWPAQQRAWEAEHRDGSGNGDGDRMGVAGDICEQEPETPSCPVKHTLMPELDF
Sequence of Perilipin-5 (Homo sapiens) + 1-acylglycerol-3-phosphate O-acyltransferase ABHD5 (Homo sapiens) (Q8WTS1 whole entry, looked up): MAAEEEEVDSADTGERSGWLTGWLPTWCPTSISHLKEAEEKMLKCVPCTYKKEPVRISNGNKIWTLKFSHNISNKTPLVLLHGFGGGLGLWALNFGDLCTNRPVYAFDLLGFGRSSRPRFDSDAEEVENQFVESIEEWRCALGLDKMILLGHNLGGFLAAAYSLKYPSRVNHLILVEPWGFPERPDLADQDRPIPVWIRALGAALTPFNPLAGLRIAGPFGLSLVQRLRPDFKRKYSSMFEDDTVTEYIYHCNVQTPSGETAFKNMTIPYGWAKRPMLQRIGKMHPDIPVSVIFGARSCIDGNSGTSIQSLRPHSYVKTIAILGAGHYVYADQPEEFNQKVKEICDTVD

In the case of C#CCOCCOCCOCCNc1nc(N2CCN(C(=O)CCCCCCCCCCNC(=O)[C@@H](CCSC)n3cc(CCO)nn3)CC2)nc(N2CCN(C(=O)CCCCCCCCCCNC(=O)[C@@H]([C@H](C)O)n3cc(C)nn3)CC2)n1, the IC50 is reported as > 39.8 µM (inactive).
O=C(CF)N(O)c1ccc(C=Cc2ccccc2)cc1 was tested, and the IC50 was > 39.9 µM (inactive).
With NC(=O)C(C(=O)/C=C/c1ccc(Cl)cc1)=C1SCCS1 the IC50 was “inactive”.
For CC1Sc2ccc(S(=O)(=O)N3CCC(C(=O)NCc4ccc(Cl)cc4)CC3)cc2NC1=O (stereo unspecified), the IC50 was “inactive”.
For CC(C)c1ccc(N2C=Nc3ccc(C(C)C)cc3C2)cc1, the IC50 was “inactive”.
c1ccc(CCC2=NCCn3cccc32)cc1 was tested, and the IC50 was “inactive”.

In order of falling IC50:
1. CCN(CC)CCN(CC(=O)Nc1c(C)cc(C)cc1C)C(=O)c1ccccc1  9.74 µM
2. Cc1ccc(/C(O)=C2/C(=O)C(=O)OC2c2ccc(Cl)cc2)cc1 (stereo unspecified)  9.72 µM
3. COc1ccc(NC(=O)C(c2ccnc3ccccc23)n2c(=O)c(-c3ccco3)nc3ccccc32)cc1 (stereo unspecified)  8.17 µM
4. Cc1ccc(S(=O)(=O)N2C[C@H]3n4c(=O)ccc(=O)n4C[C@H](OC(=O)Nc4cccs4)[C@@]3(O)C2)cc1  7.93 µM
5. CN(C)CCN(Cc1ccco1)c1ccccn1  7.75 µM
6. COc1ccc(-c2cc(N)n(S(=O)(=O)c3c(F)c(F)c(F)c(F)c3F)n2)cc1OC  6.83 µM
7. CC(C)(C)NC(=O)C(c1ccnc2ccccc12)n1c(=O)c(-c2ccco2)nc2ccccc21 (stereo unspecified)  4.81 µM
8. COc1cc(/C=C/C(=O)c2ccc(Cl)s2)cc(OC)c1O  4.48 µM
9. CCCCNC(=O)Nc1ccc2c(c1)N(C)C(=O)c1ccccc1S2  4.08 µM
10. COc1cc(C)c2sc3ccccc3c(=O)c2c1NCCN(C)C  3.84 µM
11. CSc1nnc(NC(=O)c2nc(S(=O)(=O)Cc3ccccc3)ncc2Cl)s1  3.83 µM
12. Cc1ccc(C(=O)c2c(C)oc3c2C(=O)C(=O)c2ccccc2-3)cc1  3.82 µM
13. C#CCN(C[C@@H]1[C@@H](OC(=O)NC2CCCC2)[C@@H](OC(=O)NC2CCCC2)Cn2c(=O)ccc(=O)n21)S(=O)(=O)c1ccc(C)cc1  3.69 µM
14. Cc1ccc(O)c(C(=O)C=Cc2ccccc2)c1  3.14 µM
15. COc1ccc(OCc2cn(CC(=O)c3ccc(O)cc3)nn2)cc1  3.07 µM
16. CSc1nnc(NC(=O)c2nc(S(=O)(=O)Cc3ccccc3F)ncc2Cl)s1  2.77 µM
17. COc1ccc(/C=C/C(=O)c2cc(F)ccc2OC(=O)c2ccc(OC)c(OC)c2)cc1OC  2.74 µM
18. CCC(C(=O)OCCN(CC)CC)c1ccccc1 (stereo unspecified)  2.55 µM
19. CC(=O)Nc1ccc(OCc2cn(CC(=O)c3ccc(O)cc3)nn2)cc1  2.32 µM
20. CCN(CC)CCOCCOC(=O)C1(c2ccccc2)CCCC1  2.03 µM
21. COc1ccc(C(C(=O)NC(C)(C)C)n2c(=O)c(-c3ccco3)nc3ccccc32)cc1 (stereo unspecified)  1.69 µM
22. O=c1c(-c2ccco2)nc2ccccc2n1C(CCc1ccccc1)c1nc2ccccc2[nH]1 (stereo unspecified)  1.58 µM
23. N#Cc1ccc(C(C(=O)NCc2ccccc2)n2c(=O)c(-c3ccco3)nc3ccccc32)cc1 (stereo unspecified)  1.56 µM
24. CC(C)(C)NC(=O)C(c1ccc(-c2ccccc2)cc1)n1c(=O)c(-c2ccco2)nc2ccccc21 (stereo unspecified)  1.29 µM
25. O=C(NC1CCCCC1)C(c1ccccc1)n1c(=O)c(-c2ccco2)nc2ccccc21 (stereo unspecified)  0.67 µM
